The text below walks through data of paper PMC8981457, “Cdyl Deficiency Brakes Neuronal Excitability and Nociception through Promoting Kcnb1 Transcription in Peripheral Sensory Neurons” (Advanced Science, 2022).

Where two headings read alike, the source gives them in different places. *1 amine or outer side, *2 acyl side, *3 side chain or, on linkers, in order; H or OH if unused. Where a SMILES comes first, the peptide text is derived from it. [ ]: non-standard residue; d: D form. X1 = N6‑isopropyl‑N6‑((1-methyl-1H-imidazol-5-yl)methyl)Lys, CC(C)N(CCCC[C@H](N[*:1])C(=O)[*:2])Cc1cncn1C; X2 = CC(C)N(CCCC[C@H](N[*:1])C(=O)[*:2])Cc1cncn1C; Phe(F5) = N[C@@H](Cc1c(F)c(F)c(F)c(F)c1F)C(=O)O; NMeA = CN[C@@H](C)C(=O)O; Inp = O=C(O)C1CCNCC1 Some results are limits rather than exact numbers.

The term IC50 denotes the concentration that gives 50% inhibition. Read a high IC50 as weaker potency.

The target in one assay is T1, CDYL chromodomain (Homo sapiens, UniProt Q9Y232).
T1 construct: chromodomain residues 1-78 of NP_004815, N-terminal GST tag (pGEX4T) removed by thrombin for ITC, E. coli Rosetta2 BL21(DE3)pLysS
T1 sequence (Q9Y232 1-78 isoform Q9Y232-2): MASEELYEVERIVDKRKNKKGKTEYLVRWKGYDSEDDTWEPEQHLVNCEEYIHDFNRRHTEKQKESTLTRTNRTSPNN
The assay is described as follows: isothermal titration calorimetry. Type of assay: binding. Background: In ITC the heat of successive injections is recorded.

Assay [1] addresses T2, chromodomain of MPP8 (residues 55-116 of NP_059990) (UniProt Q99549-1 55-116).
T2 construct: M-phase phosphoprotein 8 (MPP8), chromodomain, residues 55-116 of NP_059990; source: E. coli Rosetta2 BL21(DE3)pLysS, purified (HisTrap FF, Superdex 75)
T2 sequence (looked up): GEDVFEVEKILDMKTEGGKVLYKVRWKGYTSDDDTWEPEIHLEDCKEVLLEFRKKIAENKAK
The assay is described as follows: not stated; selectivity of UNC6261 among chromodomains (Figure S7); method not given. Conditions: both partners purified.

Assay [2] has as its target T3, chromodomain of CDYL2 (residues 1-75 of NP_689555) (UniProt Q8N8U2 1-75).
T3 construct: chromodomain Y-like protein 2 (CDYL2), chromodomain, residues 1-75 of NP_689555; source: E. coli Rosetta2 BL21(DE3)pLysS, purified (HisTrap FF, Superdex 75)
T3 sequence (looked up): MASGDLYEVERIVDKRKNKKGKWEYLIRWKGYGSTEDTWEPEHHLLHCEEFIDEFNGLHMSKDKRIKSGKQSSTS
The assay is described as follows: AlphaScreen or HTRF; TR-FRET competition assay for CDYL2, dose-response; 20 mM tris pH 7.5, 150 mM NaCl, 0.05% Tween 20, 2 mM DTT; 1 h equilibration; tracer not named (ref. 30). Conditions: both partners purified. Background: Bead proximity is the source of the signal in Alpha formats.

On to `COC(=O)[C@H](CO)NC(=O)[C@H](CCCCN(Cc1cncn1C)C(C)C)NC(=O)[C@H](Cc1ccccc1)NC(=O)[C@H](C)NC(=O)[C@H](Cc1c(F)c(F)c(F)c(F)c1F)NC(=O)C1CCNCC1` [UNC6261, Methyl N ^6‐isopropyl‐N ^6‐((1‐methyl‐1H‐imidazol‐5‐yl)methyl)‐N ^2‐((S)‐3‐(perfluorophenyl)‐2‐(piperidine‐4‐carboxamido)propanoyl)‐L‐alanyl‐L‐phenylalanyl‐L‐lysyl‐L‐serinate] (H-[Inp][Phe(F5)]AF[X2]S-OMe), for which, on CDYL chromodomain (read-out: Kd), the Kd stood at 139 ± 3.3 nM.

Take `COC(=O)[C@H](CO)NC(=O)[C@H](CCCCN(Cc1cncn1C)C(C)C)NC(=O)[C@H](Cc1ccccc1)NC(=O)[C@H](C)N(C)C(=O)[C@H](Cc1c(F)c(F)c(F)c(F)c1F)NC(=O)C1CCNCC1` [UNC7394, Methyl N ^6‐isopropyl‐N ^6‐((1‐methyl‐1H‐imidazol‐5‐yl)methyl)‐N ^2‐N‐methyl‐N‐((S)‐3‐(perfluorophenyl)‐2‐(piperidine‐4‐carboxamido)propanoyl)‐L‐alanyl‐L‐phenylalanyl‐L‐lysyl‐L‐serinate] (H-[Inp][Phe(F5)][NMeA]F[X2]S-OMe): the Kd on CDYL chromodomain (read-out: no measurable binding) is more than 50000 nM.

B1: UNC6261 (peptide)
peptide: {piperidine‑4‑carbonyl}-[Phe(F5)]AF[X1]S-OMe
notes: peptidomimetic pentapeptide; F1 stands for pentafluorophenylalanine, K4 for the dialkylated lysine mimetic; also called CDYL antagonist; source: synthetic, purified by reverse phase flash chromatography (TFA salt)
B1: in assay [1], the “fold selectivity for CDYL over MPP8” value is 13 fold. The molecule further registered an IC50 in assay [2] of 81 ± 16 nM.
